Where a name gives a salt, the structure may show the parent alone.
Experiments:
[1] = tested on: α3β2 nACh receptors; conditions: Xenopus oocytes; cited from earlier work
[2] = tested on: α7 nACh receptors; conditions: cited from earlier work
[3] = tested on: α4β4 nACh receptors; conditions: Xenopus oocytes; cited from earlier work
[4] = biological target: human α7 nACh receptors (Homo sapiens, UniProt P36544); conditions: at concentrations slightly higher than those potentiating at α4β2; cited from earlier work
Sequence of human α7 nACh receptors (P36544 23-502): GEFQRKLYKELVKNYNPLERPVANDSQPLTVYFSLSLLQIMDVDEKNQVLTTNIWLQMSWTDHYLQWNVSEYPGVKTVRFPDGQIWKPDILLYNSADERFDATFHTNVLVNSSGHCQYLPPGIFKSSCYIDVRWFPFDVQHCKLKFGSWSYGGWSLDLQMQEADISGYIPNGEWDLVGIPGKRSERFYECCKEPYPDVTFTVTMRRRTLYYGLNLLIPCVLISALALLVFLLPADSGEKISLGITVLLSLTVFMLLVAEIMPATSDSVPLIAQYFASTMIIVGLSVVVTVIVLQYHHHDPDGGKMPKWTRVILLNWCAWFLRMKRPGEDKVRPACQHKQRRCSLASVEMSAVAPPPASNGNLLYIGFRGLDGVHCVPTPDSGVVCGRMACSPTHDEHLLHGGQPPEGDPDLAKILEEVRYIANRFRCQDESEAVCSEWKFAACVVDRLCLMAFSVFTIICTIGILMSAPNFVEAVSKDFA

[5] = biological target: T1, α4β2 nACh receptors (Homo sapiens, UniProt P17787+P43681); conditions: potentiation of ACh at α4β2, cited from earlier work
T1 sequence (P43681 27-627): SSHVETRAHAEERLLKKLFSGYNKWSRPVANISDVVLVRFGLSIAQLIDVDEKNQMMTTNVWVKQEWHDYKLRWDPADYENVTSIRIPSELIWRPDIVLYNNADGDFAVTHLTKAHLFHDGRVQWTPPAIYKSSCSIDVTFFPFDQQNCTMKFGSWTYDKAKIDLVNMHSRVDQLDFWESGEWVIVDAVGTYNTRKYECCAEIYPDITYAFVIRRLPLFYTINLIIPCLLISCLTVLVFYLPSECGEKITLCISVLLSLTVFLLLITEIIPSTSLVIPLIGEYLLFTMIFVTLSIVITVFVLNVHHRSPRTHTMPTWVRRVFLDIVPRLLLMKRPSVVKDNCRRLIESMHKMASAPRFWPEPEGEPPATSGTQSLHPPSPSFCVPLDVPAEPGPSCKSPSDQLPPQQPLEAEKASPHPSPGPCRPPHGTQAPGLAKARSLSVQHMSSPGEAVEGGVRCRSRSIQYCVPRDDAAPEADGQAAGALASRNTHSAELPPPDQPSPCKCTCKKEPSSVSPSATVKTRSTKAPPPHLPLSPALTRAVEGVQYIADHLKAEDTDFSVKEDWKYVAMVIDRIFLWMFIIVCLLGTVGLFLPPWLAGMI
T1 sequence (P17787 26-502): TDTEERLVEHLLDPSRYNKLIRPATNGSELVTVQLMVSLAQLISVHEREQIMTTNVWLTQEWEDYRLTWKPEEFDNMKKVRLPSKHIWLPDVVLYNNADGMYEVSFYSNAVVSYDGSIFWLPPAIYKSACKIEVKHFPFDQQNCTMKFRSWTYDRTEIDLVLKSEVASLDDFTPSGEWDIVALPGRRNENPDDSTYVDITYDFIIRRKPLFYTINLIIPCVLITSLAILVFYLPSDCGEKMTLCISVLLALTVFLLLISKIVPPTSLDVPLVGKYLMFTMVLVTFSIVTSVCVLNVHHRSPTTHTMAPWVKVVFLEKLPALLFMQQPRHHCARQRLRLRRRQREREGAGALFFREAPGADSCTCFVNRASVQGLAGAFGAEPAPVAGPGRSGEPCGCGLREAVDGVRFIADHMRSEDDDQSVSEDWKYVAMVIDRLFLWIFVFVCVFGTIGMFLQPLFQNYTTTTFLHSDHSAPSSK

[6] = tested on: α3β4 nACh receptors; conditions: Xenopus oocytes; cited from earlier work
[7] = biological target: T1, α4β2 nACh receptors; type: cell-based; conditions: for potency as positive allosteric modulator relative to 1: compared with 1; for positive allosteric modulation (potentiation of ACh), in words: highest concentrations evaluated
[8] = biological target: T1, α4β2 nACh receptors; assay: Antagonism; type: cell-based

| SMILES | positive allosteric modulation (potentiation of ACh), in words [7] | IC50 [8] [µM] | further results |
| --- | --- | --- | --- |
| C=CC(C)(C)c1[nH]c2cc(Br)ccc2c1CCNC.Cl [Compound 1, des-formylflustrabromine] | – | – | potentiation of the actions of ACh at α3β2 [1]: failed to potentiate; potentiation of the actions of ACh at α7 ([2]; Xenopus oocytes): failed to potentiate; potentiation of the action of ACh in an α7 preparation [2]: failed to potentiate; potentiation of the actions of ACh at α4β4 [3]: failed to potentiate; inhibition of the action of ACh in an α7 preparation [4]: inhibited; pEC50 originally reported [5]: ca. 6.8; EC50 ([5]; read-out: EC50 originally reported): 0.12 µM; potentiation of the actions of ACh at α3β4 [6]: failed to potentiate |
| C=CC(C)(C)c1[nH]c2cc(Br)ccc2c1CCN [Compound 2, 6-Bromo-2-(1,1-dimethylallyl)tryptamine Hydrochloride] | – | – | potency as positive allosteric modulator relative to 1 [7]: about half as potent as 1 |
| CNCCc1c[nH]c2cc(Br)ccc12 [Compound 3, N-Methyl-6-bromotryptamine] | failed to enhance the action of ACh | 39.8 | – |
| CCCc1[nH]c2cc(Br)ccc2c1CCNC [Compound 4, N-Methyl-6-bromo-2-n-propyltryptamine Oxalate] | – | 72.4 | – |
| C=CCc1[nH]c2cc(Br)ccc2c1CCNC [Compound 5, N-Methyl-2-allyl-6-bromotryptamine Oxalate] | lacked potentiating activity | 3.55 | – |
| CCC(C)(C)c1[nH]c2cc(Br)ccc2c1CCNC [Compound 6, N-Methyl-6-bromo-2-(1,1-dimethylpropyl)tryptamine Oxalate] | – | – | potency as positive allosteric modulator relative to 1 [7]: at least as potent, if not twice as potent, as 1 |
| CCC(C)c1[nH]c2ccccc2c1CCNC (stereo not drawn) [Compound 9, N-Methyl-2-sec-butyltryptamine Oxalate] | inactive | 16.6 | – |
| CCCc1[nH]c2ccccc2c1CCNC [Compound 10, N-Methyl-2-(n-propyl)tryptamine Oxalate] | inactivity | 18.6 | – |
| CNCCc1c(C(C)(C)C)[nH]c2ccccc12 [Compound 11, N-Methyl-2-(tert-butyl)tryptamine Hydrogen Oxalate] | active | – | – |
| CNCCc1c(C(C)C)[nH]c2ccccc12 [Compound 12, N-Methyl-2-isopropyltryptamine Hydrochloride] | inactive | – | – |

— article PMC3200116 (Journal of medicinal chemistry, 2011)
